Here are results for one compound from patent US20210386709A1, “COMPOSITIONS AND METHODS FOR SUPPRESSING MSUT2” (United States Government As Represented By The Department …, priority 2020, published 2021).

Experiment [1] deals with T1, Soluble epoxide hydrolase (gene EPXH2) (Homo sapiens, UniProt P34913).
T1 sequence (P34913 1-555): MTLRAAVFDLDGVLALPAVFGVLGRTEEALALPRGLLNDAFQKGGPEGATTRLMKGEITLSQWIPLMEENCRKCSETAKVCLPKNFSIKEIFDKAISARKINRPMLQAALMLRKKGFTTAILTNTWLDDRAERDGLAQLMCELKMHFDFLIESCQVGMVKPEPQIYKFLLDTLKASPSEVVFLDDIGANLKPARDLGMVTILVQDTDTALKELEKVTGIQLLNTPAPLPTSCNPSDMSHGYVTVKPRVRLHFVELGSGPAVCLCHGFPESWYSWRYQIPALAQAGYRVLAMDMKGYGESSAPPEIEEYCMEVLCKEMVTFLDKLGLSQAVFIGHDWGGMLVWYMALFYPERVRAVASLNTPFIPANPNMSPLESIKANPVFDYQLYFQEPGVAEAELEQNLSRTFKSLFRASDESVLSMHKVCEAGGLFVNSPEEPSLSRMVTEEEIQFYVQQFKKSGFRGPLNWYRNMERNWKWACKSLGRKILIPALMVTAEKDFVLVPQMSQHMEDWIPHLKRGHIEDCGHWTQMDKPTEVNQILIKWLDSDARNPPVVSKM
The conditions noted are these: read-out: Ki (nM) for Known Target; cited from earlier work.

In experiment [2] the target is T2, GST-MSUT2 (Homo sapiens, UniProt Q6PJT7).
T2 construct: Targeted construct consisted of the c-terminal end (dark blue and amino acids 601-736) of MSUT2; made in house; host or cells: E. coli BL21 (DE3)
T2 sequence (Q6PJT7 601-736): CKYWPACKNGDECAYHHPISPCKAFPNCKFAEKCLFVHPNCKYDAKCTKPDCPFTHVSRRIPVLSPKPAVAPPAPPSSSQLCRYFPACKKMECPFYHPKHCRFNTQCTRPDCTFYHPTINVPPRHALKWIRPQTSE
Description: Alpha Screen assay of biotinylated poly(A) RNA:GST-MSUT2 binding. The conditions noted are these: by Alpha assay. How it is done:
Alpha Screen Assay. Samples were set up in 384 well Perkin Elmer white opaque-bottom plates (PE06). A total reaction volume of […] was plated in 384 format using a CyBio Well Vario (6 μL of donor beads (10 μg/mL), 3 μL biotinylated RNA (250 nM), 3 μL GST-MSUT2 protein (250 nM) per well). 50 nL of compounds were transferred to wells via CyBio Vario equipped with Pin Tool. This mixture was incubated at room temperature for 30 minutes away from light. Next 3 μL of acceptor beads (1.25 μg/mL) was added. Plates were incubated at room temperature away from light for 60 minutes and subsequently read on a Perkin Elmer EnVision multimode microplate reader equipped with stackers using a standard 384-well Alpha Assay software protocol.
Results. Alpha Screen design and underlying principle. Alpha Screen technology relies on donor beads, coated with a hydrogel excitable by 680 nm, brought within close proximity to an acceptor bead leading to light emission and detection. In this assay, streptavidin coated donor beads tightly bind to biotinylated-poly(A) RNA while the glutathione-coated acceptor bead binds to GST-tagged MSUT2 protein. […] When this interaction is blocked by an inhibitor, the proximity threshold for donor and acceptor beads is not met, singlet oxygen transference cannot occur, and light is not emitted by the acceptor bead (FIG. 1a).
Identification and validation of MSUT2 inhibitory compounds from NIHCC library. The single-point primary screen was conducted in duplicate and utilized the FP assay conditions determined herein (e.g., 125 nM MSUT2 RNABP and 10 nM FAM-RNA probe) with 10 μM library compounds added in a 96-well format. […] Compound specificity was empirically tested by counter screening against PABPN1, a regulator of the length of mRNA poly(A) tails (Apponi, L. H. et al. Hum Mol Genet 19, 1058-1065, (2010); and Benoit, B. et al. Dev Cell 9, 511-522, (2005)). IC50 of each of the previous 8 compounds was determined for PABPN1 using fluorescence polarization (FIG. 11), and a specificity ratio determined (Table 3). An Alpha Screen (AS) assay was developed as an orthogonal screen. Briefly, in this screen, biotinylated RNA binds streptavidin-coated donor beads, while GST-MSUT2 ZF binds glutathione-coated acceptor beads. […] Toxicity of these compounds in a HEK cell model was determined using a standard Promega Cell Titer Glo assay.
Alpha Screen Assay. […] The plate was then incubated again at room temperature away from light for 60 minutes and subsequently read on a Perkin Elmer EnSight multimode microplate reader using a standard 96-well Alpha Assay protocol.

One may read the Ki as the dissociation constant of the complex between target and ligand, obtained from inhibition or displacement. Consider `O=c1c2ccccc2[se]n1-c1ccccc1` [Ebselen], for which the Ki was 0.55 nM in experiment [1] and 1580 nM in experiment [2].
